Structures can show the parent of a compound that is named as a salt. Where two headings read alike, the source gives them in different places. Values belong to the compound of their own block, whether it stands above or below them.
What was measured:
S1PR1 [1] = molecular target: T1, S1PR1 (Homo sapiens, UniProt P21453); assay: In vitro S1PR1 agonistic activity, U2OS-EDG1 cells, LiveBLAzer-FRET B/G (CCF4-AM); format: cell-based; conditions: for EC50: 20 hours incubation; for Emax: % Effect, read-out: Emax
T1 construct: expressed in transfected cells
Description: Test Embodiment 2: In Vitro Evaluation of the Agonistic Activity of the Compounds of the Present Disclosure on S1PR1
(§1) Experimental objective: to detect the agonistic activity of compounds on S1PR1
I. Cell Treatment • 1. The cells U2OS-EDG1 (batch number: Invitrogen-K1520) were taken out from a liquid nitrogen tank and quickly thawed in a 37° C. water bath; • 2. the cell suspension was aspirated into a 15 mL centrifuge tube, resuspended in 5 mL of pre-warmed culture medium, and centrifuged at 1000 rpm for 5 min; • 3. the supernatant was discarded, 10 mL of culture medium was resuspended, transferred to a T75 culture flask, and cultured in a 37° C., 5% CO2 incubator.
II. Agonist Assay • 1. Compounds were diluted to working concentrations, and the compounds were 3-fold diluted by Echo 555 (manufacturer: Labcyte) to 10 concentrations, and then 200 nL of each concentration were transferred to cell plates, and centrifuged at 1000 rpm for 15 seconds; • 2. the culture medium in the culture flask was aspirated, and 4 mL of Dulbecco's Phosphate Buffered Saline (DPBS, supplier: Coring, catalog number: 21-031-CVR, batch number: 03318006) was added thereto to wash off the residual serum, and 2 mL of trypsin was added thereto, and incubated in a 37° C. incubator for 2 minutes to digest the cells, and then 10 mL of seed plate culture medium was added to resuspend the cells, and 0.6 mL of the cell suspension was taken out for counting; • 3. the cell density was adjusted with the seed plate culture medium to 1.88E+05 cells/mL, 40 μL was seeded per well (7500\well), and 40 μL of FreeStyle™ Expression culture medium was added around the cell plate, left to stand for 15 minutes at room temperature, and incubated at 37° C. with 5% CO2 for 20 hours.
III. Signal Detection • 1. LiveBLAzer™-FRET B/G Substrate (CCF4-AM) detection reagent was configured according to the instructions; • 2. 8 μL of 6×Substrate Mixture was added to each well of the cell plate, centrifuged at 1000 rpm for 15 seconds, attached with a membrane, incubated at 23° C. for 2 hours, and detected by Envision […].
IV. Data Analysis • 1. The original data was converted into % Effect by using the equation, and the value of EC50 could be obtained by curve fitting with four parameters [obtained in the “log(agonist) vs. response—Variable slope” mode in GraphPad Prism]; • 2. calculation formula: Ratio=(460 nm−blank)/(535 nm−blank) % Effect=(SampleRatio−Ave LCRatio)/(Ave HCRatio−Ave LCRatio)*100%

[2] = Pharmacokinetic evaluation in SD rats at different oral doses; format: in vivo, Sprague Dawley rats; conditions: for Cmax: read-out: Peak concentration Cmax; for AUC(0-t): read-out: Area under the drug-time curve AUC0-last PO; for Tmax: read-out: Peak time Tmax
Description: Test Embodiment 5: Pharmacokinetic Evaluation of Compounds in Rats at Different Doses
Experimental objective: to test the pharmacokinetics of the compounds in SD rats at different doses
Sprague Dawley rats (male, 200-300 g, 7-9 weeks old, Shanghai SLAC)
A standard protocol was used to test the pharmacokinetic characteristics of the compounds in SD rats after oral administration. In the experiment, the candidate compound was prepared into a clear solution, and administrated to rats by single oral administration. The vehicle for compound 1 was DMSO: 10% hydroxypropyl β-cyclodextrin aqueous solution=5:95. The vehicle for compounds 1A and 1B was 0.5% carboxymethyl cellulose +0.2% Tween 80. Whole blood samples of compounds 1, 1A and 1B within 48 hours were collected, centrifuged at 3000 g for 15 minutes, and the supernatant was separated to obtain plasma samples. 4-fold volume of acetonitrile solution containing internal standard was added thereto to precipitate protein. The mixture was centrifuged, and the supernatant was taken, and an equal volume of water was added thereto. Then the mixture was centrifuged and the supernatant was taken for injection. The blood drug concentration was quantitatively analyzed by LC-MS/MS analysis method, and pharmacokinetic parameters, such as peak concentration, peak time, half-life, area under the drug-time curve, were calculated.

S1PR1 [3] = molecular target: T1, S1PR1; assay: In vitro S1PR1 agonistic activity, PathHunter cell line, chemiluminescent detection; format: cell-based; conditions: for EC50: 90-180 min at 37° C.; for Emax: % activity vs maximum control ligand
Description: Test Embodiment 1: In Vitro Evaluation of the Agonistic Activity of the Compounds of the Present Disclosure on S1PR1
as §1
I. Cell Treatment • 1. A PathHunter cell line was thawed according to standard procedures; • 2. the cells were inoculated in a 20 μL 384-well microplate and incubated at 37° C. for appropriate time.
II. Agonist • 1. For agonist determination, cells were incubated with samples to be tested to induce a reaction; • 2. a storage solution to be tested was 5-fold diluted into a buffer; • 3. 5 μL of the 5-fold dilution was added to the cells and incubated at 37° C. for 90-180 minutes. The vehicle concentration was 1%.
III. Signal Detection • 1. 12.5 μL or 15 μL of PathHunter detection reagent at a volume ratio of 50% was added at a time, and then incubated at room temperature for 1 hour to generate a detection signal; • 2. the microplate was read with a PerkinElmer Envision™ instrument for chemiluminescent signal detection.
IV. Data Analysis • 1. Activity analysis of the compound was carried out by using CBIS data analysis kit (ChemInnovation, CAA); • 2. calculation formula: % activity=100%×(average test sample RLU−average vehicle RLU)/(average maximum control ligand−average vehicle RLU)

[4] = Pharmacokinetic evaluation in SD rats (intravenous and oral); format: in vivo; conditions: male, Sprague-Dawley, plasma, SD rat; for Cmax: read-out: Peak concentration Cmax; for bioavailability: read-out: Bioavailability F; for clearance: read-out: Clearance rate CL; for Vd: read-out: Tissue distribution Vdss; for AUC(0-t): read-out: Area under the drug-time curve AUC0-last PO; for half-life: read-out: Half-life T1/2 (PO) (converted)
Description: Test Embodiment 3: Pharmacokinetic Evaluation of Compound in Rats
Experimental objective: to test the pharmacokinetics of the compound in SD rats
Sprague Dawley rat (male, 200-300 g, 7-9 weeks old, Shanghai SLAC)
(§2) A standard protocol was used to test the pharmacokinetic characteristics of rodents after intravenous injection and oral administration of the compound. In the experiment, the candidate compound was prepared into a clear solution, and administrated to rats by single intravenous injection and oral administration. The vehicle for intravenous injection was a 5:95 DMSO and 10% hydroxypropyl cyclodextrin aqueous solution, and the vehicle for oral administration was a 0.5% w/v methylcellulose and 0.2% w/v tween 80 aqueous solution. Whole blood samples within 24 hours were collected, centrifuged at 3000 g for 15 minutes, and the supernatant was separated to obtain plasma samples. 4-fold volume of acetonitrile solution containing internal standard was added thereto to precipitate protein. The mixture was centrifuged, and the supernatant was taken, and an equal volume of water was added thereto. Then the mixture was centrifuged and the supernatant was taken for injection. The blood drug concentration was quantitatively analyzed by LC-MS/MS analysis method, and pharmacokinetic parameters, such as peak concentration, clearance rate, half-life, area under the drug-time curve and bioavailability, were calculated.

[5] = Pharmacokinetic evaluation in CD-1 mice (intravenous and oral); format: in vivo; conditions: male, mouse, plasma; for Cmax / bioavailability: intravenous 0.5 mg/kg; for Cmax: oral 2.0 mg/kg (route of Cmax not stated), read-out: Peak concentration Cmax; for bioavailability: oral 2.0 mg/kg, read-out: Bioavailability F; for clearance / Vd: intravenous injection 0.5 mg/kg (oral 2.0 mg/kg); for clearance: read-out: Clearance rate CL; for Vd: read-out: Tissue distribution Vdss; for AUC(0-t) / half-life: oral administration 2.0 mg/kg; for AUC(0-t): read-out: Area under the drug-time curve AUC0-last PO; for half-life: read-out: Half-life T1/2 (PO) (converted)
Description: Test Embodiment 4: Pharmacokinetic Evaluation of Compound in Mice
Experimental objective: to test the pharmacokinetics of the compound in CD-1 mice
CD-1 mice (male, 20-40 g, 6-10 weeks old, Shanghai BK)
as §2, with “The standard” for “A standard”, “clear solution or a suspension,” for “clear solution,”, “to two mice” for “to rats”, “hydroxypropyl β-cyclodextrin” for “hydroxypropyl cyclodextrin”, “at 3200” for “at 3000”, “for 10” for “for 15”

[6] = SD rat, single oral administration 5 mg/kg, 5 mg/kg
[7] = intravenous injection 1.0 mg/kg (oral 3.0 mg/kg)
[8] = intravenous injection 0.8 mg/kg (oral 2.4 mg/kg)
[9] = male, Sprague-Dawley, rat, plasma, po, 5 mg/kg, single oral administration 5 mg/kg
[10] = male, Sprague-Dawley, rat, plasma, po, 30 mg/kg, single oral administration 30 mg/kg

T1 sequence (P21453 whole entry): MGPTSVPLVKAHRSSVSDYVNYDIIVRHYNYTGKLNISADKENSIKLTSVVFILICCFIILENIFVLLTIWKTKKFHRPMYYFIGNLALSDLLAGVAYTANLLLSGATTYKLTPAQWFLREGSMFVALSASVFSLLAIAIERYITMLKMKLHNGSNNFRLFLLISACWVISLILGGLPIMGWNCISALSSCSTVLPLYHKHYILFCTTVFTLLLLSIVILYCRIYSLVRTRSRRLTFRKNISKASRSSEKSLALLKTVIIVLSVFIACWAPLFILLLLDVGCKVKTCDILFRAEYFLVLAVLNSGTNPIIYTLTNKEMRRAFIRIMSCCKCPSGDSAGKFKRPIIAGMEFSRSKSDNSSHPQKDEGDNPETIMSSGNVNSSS

EC50 (S1PR1 [1]): 150 pM
Emax (S1PR1 [1]): 84.2%
Area under the drug-time curve AUC0-last PO [2, 6]: 26.434 µM·h
Half-life T1/2 (PO) [2, 6]: 5.69 h
Peak time Tmax [2, 6]: 2 h
Cmax [2, 6]: 2500 nM
SMILES: CC(C)Oc1ccc(-c2nc(-c3cccc4c3CCC43CCN(CC4(C(=O)O)CC4)C3)no2)cc1C#N (single isomer, unassigned) [Compound 22A]

EC50 (S1PR1 [3]): 137 pM
Emax (S1PR1 [3]): 122%
Cmax ([4]; intravenous 1.0 mg/kg, oral 3.0 mg/kg (route of Cmax not stated)): 1140 ng/mL
bioavailability ([4]; intravenous 1.0 mg/kg, oral 3.0 mg/kg): 83.1%
clearance [4, 7]: 5.97 mL/min/kg
Vd [4, 7]: 2.66 L/kg
AUC(0-t) ([4]; oral administration 3.0 mg/kg): 11.5 µM·h
half-life ([4]; oral administration 3.0 mg/kg): 4.91 h
Cmax [5]: 615 ng/mL
bioavailability [5]: 70.1%
clearance [5]: 18.2 mL/min/kg
Vd [5]: 2.17 L/kg
AUC(0-t) [5]: 2.74 µM·h
half-life [5]: 3.61 h
SMILES: CC(C)Oc1ccc(-c2nc(-c3cccc4c3CCC43CCN(C(=O)CO)C3)no2)cc1C#N (centres unmarked) [Compound 1]

EC50 (S1PR1 [3]): 75.4 pM
Emax (S1PR1 [3]): 118%
Cmax ([4]; intravenous 0.8 mg/kg, oral 2.4 mg/kg (route of Cmax not stated)): 1770 ng/mL
bioavailability ([4]; intravenous 0.8 mg/kg, oral 2.4 mg/kg): 69.5%
clearance [4, 8]: 3.44 mL/min/kg
Vd [4, 8]: 1.6 L/kg
AUC(0-t) ([4]; oral administration 2.4 mg/kg): 16.3 µM·h
half-life ([4]; oral administration 2.4 mg/kg): 4.67 h
Cmax [5]: 869 ng/mL
bioavailability [5]: 62.5%
clearance [5]: 5.2 mL/min/kg
Vd [5]: 1.82 L/kg
AUC(0-t) [5]: 7.88 µM·h
half-life [5]: 3.66 h
AUC(0-t) [2, 9]: 32.3 µM·h
Cmax [2, 9]: 2400 nM
Tmax [2, 9]: 5 h
AUC(0-t) [2, 10]: 256 µM·h
half-life ([2]; male, Sprague-Dawley, rat, plasma, po, 30 mg/kg, single oral administration 30 mg/kg, read-out: Half-life T1/2 (PO) (converted)): 8.24 h
Cmax [2, 10]: 15300 nM
Tmax [2, 10]: 2 h
SMILES: CC(C)Oc1ccc(-c2nc(-c3cccc4c3CCC43CCN(CC4(C(=O)O)CC4)C3)no2)cc1C#N (centres unmarked) [Hydrochloride of compound 22]

EC50 (S1PR1 [1]): 21.1 pM
Emax (S1PR1 [1]): 91.5%
SMILES: CC(C)Oc1ccc(-c2nc(-c3cccc4c3CCC43CCN(CC4(C(=O)O)CC4)C3)no2)cc1C(F)F (centres unmarked) [Hydrochloride of compound 29]

EC50 (S1PR1 [1]): 132 pM
Emax (S1PR1 [1]): 103%
SMILES: CC(C)Oc1ccc(-c2nc(-c3cccc4c3CCC43CCN(CC4(C(=O)O)CC4)C3)no2)cc1Br (centres unmarked) [Hydrochloride of compound 30]

EC50 (S1PR1 [1]): 456 pM
Emax (S1PR1 [1]): 101%
SMILES: N#Cc1cc(-c2nc(-c3cccc4c3CCC43CCN(CC4(C(=O)O)CC4)C3)no2)ccc1OC1CCCC1 (centres unmarked) [Hydrochloride of compound 31]

EC50 (S1PR1 [1]): 1450 pM
Emax (S1PR1 [1]): 95.9%
SMILES: CC(C)Oc1ncc(-c2nc(-c3cccc4c3CCC43CCN(CC4(C(=O)O)CC4)C3)no2)cc1C#N (centres unmarked) [Hydrochloride of compound 32]

EC50 (S1PR1 [1]): 10200 pM
Emax (S1PR1 [1]): 99.9%
SMILES: CC(C)Nc1ncc(-c2nc(-c3cccc4c3CCC43CCN(CC4(C(=O)O)CC4)C3)no2)cc1C#N (centres unmarked) [Hydrochloride of compound 33]

EC50 (S1PR1 [1]): 6070 pM
Emax (S1PR1 [1]): 94.9%
SMILES: N#Cc1cc(-c2nc(-c3cccc4c3CCC43CCN(CC4(C(=O)O)CC4)C3)no2)ccc1OC(F)F (centres unmarked) [Hydrochloride of compound 34]

— patent US11760751B2, “Benzo 2-azaspiro[4.4]nonane compound and use thereof” (HELIOEAST PHARMACEUTICAL CO., LTD., priority 2020, dated 2023)
